This is an account of results in patent US8361968B2 (Takeda Pharmaceutical Company Limited, priority 2002, dated 2013).

For series [1], the system named is hOT7T175-expressed CHO cells. Type of series: cell-based. The procedure: Assay for Cell Growth Inhibition Activity in hOT7T175-Expressed Cho Cells hOT7T175-Expressed CHO cells (hereinafter hOT7T175) were cultured in DMEM supplemented with 10% dialyzed FBS (hereinafter 10% dFBS/DMEM), which was used for the following assay. The hOT7T175 was suspended in 10% dFBS/DMEM at 10,000 cells/ml. The cells were plated on a 96 well plate at 100 μL each/well (1,000 cells/well), followed by culturing overnight at 37° C. in a 5% CO2 incubator. On the following day, the medium was removed and 90 μL of 10% dFBS/DMEM supplemented with 0.5% BSA (hereinafter, 0.5% BSA/10% dFBS/DMEM) was added. […] After 10 μL of Cell Counting Kit-8 solution (Dojin Chemical Laboratory) was added to each well, incubation was performed at 37° C. in a 5% CO2 incubator for 4 hours and absorbance was measured at 450 nm.

Series [2] deals with human colonic carcinoma-derived cell line SW620. The series can be described thus: Tumor growth inhibition activity in tumor-bearing mice with SW620. Type of series: in vivo. Particulars: for tumor growth inhibition (tumor size) compared to the vehicle group: SW620 tumor-bearing BALB/cAnN-nu mice, s.c. osmotic pump. The procedure:
The abscissa denotes the number of days after injection. The bar on the abscissa designates a dosing period. The ordinate denotes a tumor size (mm^3).
Evaluation of Tumor Growth Inhibition Activity
On the following day, human colonic carcinoma-derived cell line SW620 (ATCC) was dissolved in 20 mM phosphate buffered saline (pH 7.2)(PBS) containing 200 μL of 0.15M NaCl at a density of 2×10^6 cells. The resulting solution was subcutaneously injected into the left flank of the mice above. The day when the cells were injected was made Day 0. Tumor was measured with an electronic caliper every other or 2 other days during Days 4 to 13 from the cell administration, and tumor size was calculated by the following equation: […].

In series [3] the target is hOT7T175 (Homo sapiens, UniProt Q969F8, L364H). Put plainly: hOT7T175 receptor binding activity: binding inhibition of Cy-5-labeled metastin (40-54) on hOT7T175-expressed CHO cells. More on the design: expressed in transfected cells; host or cells: CHO cells.
Series [4] concerns rats. The series can be described thus: Effect of metastin derivatives on blood glucose level and blood glucagon level. Type of series: in vivo. The note with it: for blood glucose level: i.v. 80 nmol/kg (FIG. 10); for blood glucagon level: i.v. 80 nmol/kg (FIG. 11). An excerpt:
The value indicates (mean±SE) (n=5). The symbol * designates that the P-value is 0.05 or less, when compared to the saline group and the symbol ** designates that the P-value is 0.01 or less, when compared to the saline group.
In the figure, the symbols, open circle, closed circle and closed triangledesignate the blood glucagon level in the saline group and the group receiving 80 nmol/kg KiSS1-305 (Compound No. 305), the group receiving 80 nmol/kg KiSS1-322 (Compound No. 322), respectively. The value indicates (mean±SE) (n=5). The symbol * designates that the P-value is 0.05 or less, when compared to the saline group.
An operation was performed in free moving mature Wistar male rats (weighing […] at the time of operation) in a manner similar to TEST EXAMPLE 1 to collect blood. After the operation, the animal was maintained overnight. […] To prevent blood clotting, 3 μl of 300 KIU/ml aprotinin solution containing 3 mg/ml EDTA had previously been filled in the syringe. […] Blood was collected from the jugular vein by 300 μl each 2, 5, 15, 30, 45 and 60 minutes starting from the intravenous injection. The collected blood was centrifuged (13,000 rpm, 5 minutes) with a high speed refrigerated centrifuge (MR-150, Tomy Seiko Co., Ltd.) to recover the supernatant (plasma). Glucose level in blood was measured using Fuji Drychem 3500 (FUJI FILM) and glucagon level in blood was measured using a glucagon kit “Daiichi” (Daiichi Radioisotope Laboratories Ltd.), as in TEST EXAMPLE 1 or 2.

The nature of series [5]: in vitro. Particulars: female, Balb/c, mouse, serum.
Description: Blood was drawn from Balb/c mice (female) of 8 weeks old, settled at 37° C. for 30 minutes and centrifuged at 13000 rpm for 10 minutes to give the serum as the supernatant. The serum thus obtained was frozen-stored at −80° C.
The stability test was performed by addition of 5 nmol of Compound (5 μL of aqueous solution) to 45 μL of serum and then settlement of the mixture at 37° C. The settlement was made at 3 points of time, including 2, 10 and 30 minutes. The sample after the settlement was boiled for 3 minutes and cooled on an ice bath. After 200 μL of acetonitrile/water (3/1) was added to the sample, the mixture was ultrasonicated for 5 minutes and then centrifuged at 5000 rpm for 1 minute. After 150 μL of the supernatant was diluted with 250 μL of distilled water, insoluble matters were removed by filtration through a filter having a pore size of 0.45 μm and 200 μL of the filtrate was applied on HPLC (220 nm) to determine the peak area of Compound. A ratio of the peak area to the area when Compound was treated for 0 minute under the same conditions was calculated as a mean value in 4 respective runs to determine the residual ratio. Next, by taking the calculated residual ratio on the ordinate and the time on the abscissa, a graph was prepared and approximated by an exponential function.
The preparative HPLC used was the LC-VP series manufactured by Shimadzu Corporation and Wakosil-II 5C18 HG (4.6 mm×100 mm) manufactured by Wako Pure Chemical Industries, Ltd. was used as the column. Eluant A (0.1% TFA-containing water) and eluant B (0.1% TFA-containing acetonitrile) were used as eluants. Analysis was performed by linear density gradient elution (25 minutes) at a flow rate of 1.0 ml/min. using eluants A/B: 100/0-0/50.

Read-outs that look alike come from different tables or passages of the source. Square brackets hold non-standard residues; d marks the D form. Peptide text beside a SMILES is read from it. * marks the point of attachment. Propanoyl(3-(3-pyridyl)) = O=C(CCc1cccnc1)*; Arg(Me) = CNC(=N)NCCC[C@H](N)C(=O)O; d4Pal = N[C@H](Cc1ccncc1)C(=O)O; azaGly = NNC(=O)O

Sequence of hOT7T175 (Q969F8 whole entry L364H): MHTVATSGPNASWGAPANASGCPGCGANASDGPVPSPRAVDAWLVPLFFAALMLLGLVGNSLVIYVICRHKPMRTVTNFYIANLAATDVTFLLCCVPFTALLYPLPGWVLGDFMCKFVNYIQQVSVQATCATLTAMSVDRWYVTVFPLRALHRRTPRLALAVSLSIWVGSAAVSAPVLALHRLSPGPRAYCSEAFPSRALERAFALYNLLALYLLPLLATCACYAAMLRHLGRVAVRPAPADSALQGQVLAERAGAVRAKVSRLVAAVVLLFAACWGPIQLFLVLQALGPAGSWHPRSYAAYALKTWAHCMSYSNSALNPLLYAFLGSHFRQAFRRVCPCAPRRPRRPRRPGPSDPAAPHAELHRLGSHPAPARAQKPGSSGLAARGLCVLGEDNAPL

The term IC50 denotes the concentration that gives 50% inhibition. In general, half-life refers to how long it takes for the measured level to halve. Higher therefore signals slow loss. Regarding `CNC(=N)NCCC[C@H](NC(=O)[C@H](CC(C)C)NC(=O)NNC(=O)[C@H](Cc1ccccc1)NC(=O)[C@H](CO)NC(=O)[C@H](CC(N)=O)NC(=O)CCc1cccnc1)C(=O)N[C@@H](Cc1ccccc1)C(N)=O` [Compound No. 322, 3-Pyridylpropionyl-Asn-Ser-Phe-AzaGly-Leu-Arg(Me)-Phe-NH2] ({Propanoyl(3-(3-pyridyl))}-NSF[azaGly]L[Arg(Me)]F-NH2), the IC50 came out at 7.19e-08 M in series [1] and 54 nM in series [3]. Further, the “tumor growth inhibition compared with the Metastin group” value in series [2] (24 nmol/day/mouse×14 days, Day 11) was “significant tumor growth inhibition activity even when compared with the Metastin group”. Further, the “tumor growth inhibition (tumor size) compared to the vehicle group” value is reported as “significant tumor growth inhibition activity in a 1/10 dose (2.4 nmol/day/mouse×14 days) of Metastin from Days 6 to 8” in series [2] (2.4 nmol/day/mouse×14 days) and “significant tumor growth inhibition activity from Days 6 to 11” in series [2] (24 nmol/day/mouse×14 days). For the same compound, the blood glucose level result in series [4] is on record as “increase in the blood glucose level”. The blood glucagon level entry in series [4] is listed as “increase in the blood glucagon level”. The half-life at 100 µM in series [5] was 1.57 h.
For the compound `CNC(=N)NCCC[C@H](NC(=O)[C@H](CC(C)C)NC(=O)NNC(=O)[C@H](Cc1ccccc1)NC(=O)[C@H](CO)NC(=O)[C@H](CC(N)=O)NC(=O)[C@@H](Cc1ccncc1)NC(=O)[C@H](N)Cc1ccc(O)cc1)C(=O)N[C@@H](Cc1ccccc1)C(N)=O` [Compound No. 305, D-Tyr-D-Pya(4)-Asn-Ser-Phe-AzaGly-Leu-Arg(Me)-Phe-NH2] (H-[dY][d4Pal]NSF[azaGly]L[Arg(Me)]F-NH2), the IC50 in series [1] (hOT7T175-expressed CHO cells, 3 days culture, Cell Counting Kit-8, read-out: IC50 (M), cell growth inhibition activity) was 8.94e-09 M. Moreover, the “tumor growth inhibition (tumor size) compared to the vehicle group” value in series [2] (2.4 nmol/day/mouse×14 days) was “significant tumor growth inhibition activity from Days 5 to 11”. The “tumor growth inhibition (tumor size) compared to the vehicle group” value in series [2] (24 nmol/day/mouse×14 days) is “significant effect of tumor growth inhibition from Days 5 to 9 and on Day 11”. Besides, the “effect of tumor growth inhibition relative to Metastin” value in series [2] (SW620 tumor-bearing mice, in vivo) is listed as 10 times. For the same compound, in series [4], the blood glucose level result is reported as “increase in the blood glucose level” and the blood glucagon level result is recorded as “increase in the blood glucagon level”. The compound further registered a half-life at 100 µM in series [5] of 1.11 h.
